In US7528138B2, “Pyrazolo[1,5-a]pyrimidines useful as inhibitors of protein kinases” (Vertex Pharmaceuticals Incorporated, priority 2004, dated 2009):

What was measured:
Assay type in all cases: biochemical
[1] = target: T1, Itk (Homo sapiens, UniProt Q08881); test: ITK Inhibition Assay (Radiometric), radioactive-phosphate incorporation; details: enzyme inhibition data (Ki), Table 11; radiometric or UV assay not stated
T1 sequence (Q08881 1-620): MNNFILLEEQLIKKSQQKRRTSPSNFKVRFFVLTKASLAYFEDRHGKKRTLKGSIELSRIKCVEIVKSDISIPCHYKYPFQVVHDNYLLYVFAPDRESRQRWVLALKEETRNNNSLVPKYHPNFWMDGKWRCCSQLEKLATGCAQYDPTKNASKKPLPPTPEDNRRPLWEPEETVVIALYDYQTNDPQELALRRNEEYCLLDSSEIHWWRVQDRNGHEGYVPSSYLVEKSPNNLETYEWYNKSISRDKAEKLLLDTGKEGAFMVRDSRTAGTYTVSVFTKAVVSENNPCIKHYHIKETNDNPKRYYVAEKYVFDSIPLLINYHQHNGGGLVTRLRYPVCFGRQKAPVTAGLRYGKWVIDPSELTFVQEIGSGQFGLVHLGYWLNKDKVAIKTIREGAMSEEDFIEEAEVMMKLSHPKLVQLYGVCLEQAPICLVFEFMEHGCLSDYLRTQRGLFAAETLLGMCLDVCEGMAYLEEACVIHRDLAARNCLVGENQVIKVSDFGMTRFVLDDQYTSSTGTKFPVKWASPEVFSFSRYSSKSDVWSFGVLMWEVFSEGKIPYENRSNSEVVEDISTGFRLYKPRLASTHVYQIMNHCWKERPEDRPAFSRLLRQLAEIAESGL
Description: Assays are carried out in a mixture of 20 mM MOPS (pH 7.0), 10 mM MgCl2, 0.1% BSA and 1 mM DTT. Final substrate concentrations in the assay are 7.5 μM [γ-33P]ATP (400 mCi 33P ATP/mmol ATP, Amersham Pharmacia Biotech/Sigma Chemicals) and 3 μM peptide (SAM68 protein D332-443). Assays are carried out at 25° C. in the presence of 50 nM Itk. An assay stock buffer solution is prepared containing all of the reagents listed above, with the exception of ATP and the test compound of interest. 50 μL of the stock solution is placed in a 96 well plate followed by addition of 2 μL of DMSO stock containing serial dilutions of the test compound (typically starting from a final concentration of 50 μM with 2-fold serial dilutions) in duplicate (final DMSO concentration 2%). The plate is pre-incubated for 10 minutes at 25° C. and the reaction initiated by addition of 50 μL [γ-33P]ATP (final concentration 7.5 μM).
The reaction is stopped after 10 minutes by the addition of […] 0.2M phosphoric acid+0.01% TWEEN 20. A multiscreen phosphocellulose filter 96-well plate (Millipore, Cat no. MAPHN0B50) is pretreated with 100 μL 0.2M phosphoric acid +0.01% TWEEN 20 prior to the addition of […] of the stopped assay mixture. The plate is washed with 4×200 μL 0.2M phosphoric acid+0.01% TWEEN 20. After drying, 30 μL Optiphase ‘SuperMix’ liquid scintillation cocktail (Perkin Elmer) is added to the well prior to scintillation counting (1450 Microbeta Liquid Scintillation Counter, Wallac).
Ki(app) data are calculated from non-linear regression analysis of the initial rate data using the Prism software package (GraphPad Prism version 3.0cx for Macintosh, GraphPad Software, San Diego Calif., USA).

[2] = target: c-Met (Homo sapiens, UniProt P08581); test: c-Met Inhibition Assay, coupled enzyme system; details: enzyme inhibition data (Ki), Table 11
Description: Compounds are screened for their ability to inhibit c-Met kinase activity using a standard coupled enzyme system (Fox et al., Protein Sci. 1998, 7, 2249). Reactions are carried out in a solution containing 100 mM HEPES (pH 7.5), 10 mM MgCl2, 25 mM NaCl, 300 μM NADH, 1 mM DTT, and 1.5% DMSO. Final substrate concentrations in the assay are 200 μM ATP (Sigma Chemicals, St Louis, Mo.) and 10 μM polyGluTyr (Sigma Chemical Company, St. Louis). Reactions are carried out at 30° C. and 80 nM c-Met. Final concentrations of the components of the coupled enzyme system are 2.5 mM phosphoenolpyruvate, 300 μM NADH, 30 μg/ml pyruvate kinase and 10 μg/ml lactate dehydrogenase.
An assay stock buffer solution is prepared containing all of the reagents listed above with the exception of ATP and a test compound of the present invention. The assay stock buffer solution (175 μl) is incubated in a 96 well plate with 5 μl of the test compound of the present invention at final concentrations spanning 0.006 μM to 12.5 μM at 30° C. for 10 minutes. Typically, a 12-point titration is conducted by preparing serial dilutions (from 10 mM compound stocks) with DMSO of the test compounds of the present invention in daughter plates. The reaction is initiated by the addition of 20 μl of ATP (final concentration 200 μM). Rates of reaction are obtained using a Molecular Devices Spectramax plate reader (Sunnyvale, Calif.) over 10 minutes at 30° C. The Ki values are determined from the rate data as a function of inhibitor concentration.

[3] = target: T2, JAK3 (Homo sapiens, UniProt P52333); test: JAK3 Inhibition Assay, 33P incorporation; details: enzyme inhibition data (Ki), Table 11
T2 sequence (P52333 1-1124): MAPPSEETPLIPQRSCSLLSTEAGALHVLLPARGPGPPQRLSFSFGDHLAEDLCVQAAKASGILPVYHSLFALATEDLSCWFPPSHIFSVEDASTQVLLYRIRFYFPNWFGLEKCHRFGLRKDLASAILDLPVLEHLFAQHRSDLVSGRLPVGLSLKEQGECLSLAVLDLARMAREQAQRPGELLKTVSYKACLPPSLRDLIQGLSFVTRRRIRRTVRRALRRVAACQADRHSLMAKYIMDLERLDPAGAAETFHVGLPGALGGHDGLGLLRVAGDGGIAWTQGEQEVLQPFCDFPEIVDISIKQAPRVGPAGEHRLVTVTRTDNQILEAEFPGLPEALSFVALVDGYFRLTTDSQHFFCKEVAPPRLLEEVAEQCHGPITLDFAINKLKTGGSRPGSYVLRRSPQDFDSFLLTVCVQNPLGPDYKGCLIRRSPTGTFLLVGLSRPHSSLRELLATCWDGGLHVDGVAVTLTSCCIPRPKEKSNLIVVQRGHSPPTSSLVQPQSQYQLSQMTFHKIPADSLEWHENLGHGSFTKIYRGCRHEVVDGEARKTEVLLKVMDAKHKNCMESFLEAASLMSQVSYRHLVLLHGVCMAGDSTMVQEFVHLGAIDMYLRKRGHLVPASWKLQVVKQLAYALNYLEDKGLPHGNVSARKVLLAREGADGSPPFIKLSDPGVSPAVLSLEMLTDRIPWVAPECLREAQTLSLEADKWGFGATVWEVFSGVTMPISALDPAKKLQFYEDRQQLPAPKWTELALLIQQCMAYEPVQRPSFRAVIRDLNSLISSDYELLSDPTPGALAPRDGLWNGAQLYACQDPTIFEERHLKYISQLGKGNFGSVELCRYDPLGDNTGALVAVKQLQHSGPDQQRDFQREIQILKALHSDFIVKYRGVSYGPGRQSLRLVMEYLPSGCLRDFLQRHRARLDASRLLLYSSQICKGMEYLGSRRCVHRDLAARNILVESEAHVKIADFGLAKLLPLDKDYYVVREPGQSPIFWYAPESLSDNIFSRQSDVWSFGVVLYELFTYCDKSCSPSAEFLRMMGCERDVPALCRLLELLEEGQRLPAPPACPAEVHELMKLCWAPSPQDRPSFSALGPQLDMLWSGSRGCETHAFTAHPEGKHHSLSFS
Description: Reactions are carried out in a kinase buffer containing 100 mM HEPES (pH 7.4), 1 mM DTT, 10 mM MgCl2, 25 mM NaCl, and 0.01% BSA. Substrate concentrations in the assay are 5 μM ATP (200 uCi/μmole ATP) and 1 μM poly(Glu)4Tyr. Reactions are carried out at 25° C. and 1 nM JAK3. To each well of a 96 well polycarbonate plate is added 1.5 μl of a candidate JAK3 inhibitor along with 50 μl of kinase buffer containing 2 μM poly(Glu)4Tyr and 10 μM ATP. This is then mixed and 50 μl of kinase buffer containing 2 nM JAK3 enzyme is added to start the reaction. After 20 minutes at room temperature (25 C), the reaction is stopped with 50 μl of 20% trichloroacetic acid (TCA) that also contained 0.4 mM ATP. The entire contents of each well are then transferred to a 96 well glass fiber filter plate using a TomTek Cell Harvester. After washing, 60 μl of scintillation fluid is added and ^33P incorporation detected on a Perkin Elmer TopCount.

c-Met, sequence (P08581 25-1390): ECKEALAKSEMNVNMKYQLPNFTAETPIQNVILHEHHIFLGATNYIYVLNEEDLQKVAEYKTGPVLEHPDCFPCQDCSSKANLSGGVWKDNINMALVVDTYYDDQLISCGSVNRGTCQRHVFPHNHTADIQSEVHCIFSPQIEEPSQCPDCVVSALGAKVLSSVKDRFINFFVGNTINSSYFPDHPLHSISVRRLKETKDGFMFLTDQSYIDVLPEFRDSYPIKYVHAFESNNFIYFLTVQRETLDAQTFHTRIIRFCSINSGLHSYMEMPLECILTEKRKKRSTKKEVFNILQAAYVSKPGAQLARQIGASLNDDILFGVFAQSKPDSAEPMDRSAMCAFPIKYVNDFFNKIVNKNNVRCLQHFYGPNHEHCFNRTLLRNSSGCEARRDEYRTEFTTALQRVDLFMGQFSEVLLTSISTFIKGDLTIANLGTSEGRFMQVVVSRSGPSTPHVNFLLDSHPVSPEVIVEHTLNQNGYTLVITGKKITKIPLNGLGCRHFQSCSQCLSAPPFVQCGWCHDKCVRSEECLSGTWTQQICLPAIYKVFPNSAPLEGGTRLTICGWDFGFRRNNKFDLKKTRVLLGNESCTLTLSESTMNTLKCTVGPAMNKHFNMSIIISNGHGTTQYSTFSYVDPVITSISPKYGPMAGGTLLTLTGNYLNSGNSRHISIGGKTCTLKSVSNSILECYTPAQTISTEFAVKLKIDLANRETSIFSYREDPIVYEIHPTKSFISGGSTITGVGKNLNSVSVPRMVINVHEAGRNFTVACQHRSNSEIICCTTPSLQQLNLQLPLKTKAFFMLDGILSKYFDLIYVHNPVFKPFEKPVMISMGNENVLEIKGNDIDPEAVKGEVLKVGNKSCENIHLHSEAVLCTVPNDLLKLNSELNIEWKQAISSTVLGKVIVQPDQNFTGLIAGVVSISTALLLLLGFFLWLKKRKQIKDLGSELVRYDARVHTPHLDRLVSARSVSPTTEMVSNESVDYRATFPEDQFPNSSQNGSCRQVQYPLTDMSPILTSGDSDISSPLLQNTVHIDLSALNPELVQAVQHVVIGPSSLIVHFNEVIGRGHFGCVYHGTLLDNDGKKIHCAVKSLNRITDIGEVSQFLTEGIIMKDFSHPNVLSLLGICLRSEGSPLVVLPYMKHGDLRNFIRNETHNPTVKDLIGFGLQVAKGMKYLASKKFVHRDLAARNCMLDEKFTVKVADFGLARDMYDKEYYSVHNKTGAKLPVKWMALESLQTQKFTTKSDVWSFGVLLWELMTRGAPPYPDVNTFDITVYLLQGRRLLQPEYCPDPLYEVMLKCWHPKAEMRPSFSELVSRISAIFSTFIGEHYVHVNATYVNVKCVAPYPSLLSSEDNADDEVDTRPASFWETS

Structure (SMILES)	Ki [1]	Ki [2]	Ki [3]
CC(=O)N1CCN(c2ncccc2-c2cnc3c(-c4ccccn4)c(N)nn3c2)CC1 [Compound V-269]	0.5 to 5 µM	0.5 to 5 µM	> 5 µM
Nc1ccc(CNC(=O)c2cnc3c(-c4ccccn4)c(N)nn3c2)cc1 [Compound V-199]	0.5 to 5 µM	0.5 to 5 µM	> 5 µM
COC[C@H](C)Nc1cc(-c2c(N)nn3cc(C)cnc23)ncn1 [Compound V-292]	0.5 to 5 µM	< 0.5 µM	0.5 to 5 µM
CC(C)CN(C)C(=O)c1cccc(-c2cnc3c(-c4ccccn4)c(N)nn3c2)n1 [Compound V-125]	0.5 to 5 µM	< 0.5 µM	> 5 µM
Nc1nn2cc(-c3ccccc3[N+](=O)[O-])cnc2c1-c1ccccn1 [Compound V-21]	0.5 to 5 µM	0.5 to 5 µM	> 5 µM
Cc1cnc2c(-c3cc(N4CCC(C(N)=O)CC4)ncn3)c(N)nn2c1 [Compound V-341]	0.5 to 5 µM	0.5 to 5 µM	0.5 to 5 µM
Nc1nn2cc(CCCN3CCNCC3)cnc2c1-c1ccccn1 [Compound V-314]	0.5 to 5 µM	0.5 to 5 µM	> 5 µM
Nc1nn2cc(-c3cccnc3N3CCCC(CO)C3)cnc2c1-c1ccccn1 (centres unmarked) [Compound V-270]	0.5 to 5 µM	0.5 to 5 µM	> 5 µM
CCOC(=O)C1CCCN(CCCc2cnc3c(-c4ccccn4)c(N)nn3c2)C1 (centres unmarked) [Compound V-330]	0.5 to 5 µM	0.5 to 5 µM	> 5 µM
Nc1nn2cc(-c3ccncn3)cnc2c1C(=O)N[C@H](CO)c1ccccc1 [Compound V-46]	0.5 to 5 µM	0.5 to 5 µM	> 5 µM
Nc1nn2cc(-c3ccccc3-c3ccccc3)cnc2c1-c1ccccn1 [Compound V-15]	0.5 to 5 µM	0.5 to 5 µM	> 5 µM
COc1ccc(-c2cn3nc(N)c(-c4ccccn4)c3nc2C(F)(F)F)cc1 [Compound V-218]	0.5 to 5 µM	–	–
Cc1cnc2c(-c3cc(N[C@@H](C)c4ccccc4)ncn3)c(N)nn2c1 [Compound V-301]	0.5 to 5 µM	0.5 to 5 µM	–
Cc1ccn2nc(N)c(-c3ccccc3)c2n1 [Compound V-1]	–	–	> 5 µM
CCN(CC)C(=O)C1CCCN(c2cc(-c3c(N)nn4cc(C)cnc34)ncn2)C1 (centres unmarked) [Compound V-338]	0.5 to 5 µM	< 0.5 µM	–
COc1ccc(-c2cnc3c(-c4ccc(C)cn4)c(N)nn3c2)cc1 [Compound V-220]	0.5 to 5 µM	–	–
Nc1nn2cc(-c3cccc(C(=O)N4CCC(N5CCCC5)CC4)n3)cnc2c1-c1ccccn1 [Compound V-121]	0.5 to 5 µM	–	> 5 µM
Nc1nn2cc(-c3ccc(N4CCCC4)nc3)cnc2c1-c1ccccn1 [Compound V-143]	0.5 to 5 µM	–	> 5 µM
Cc1cnc2c(-c3cc(N[C@H](C)c4ccccc4)ncn3)c(N)nn2c1 [Compound V-300]	0.5 to 5 µM	< 0.5 µM	–

The next lines start with the values.

Ki [1]	Ki [2]	Ki [3]	Structure (SMILES)
0.5 to 5 µM	< 0.5 µM	> 5 µM	CN(CCc1ccccn1)C(=O)c1cccc(-c2cnc3c(-c4ccccn4)c(N)nn3c2)n1 [Compound V-100]
0.5 to 5 µM	0.5 to 5 µM	> 5 µM	CN(C)CCCc1cnc2c(-c3ccccn3)c(N)nn2c1 [Compound V-316]
0.5 to 5 µM	< 0.5 µM	> 5 µM	CCCCNC(=O)c1cccc(-c2cnc3c(-c4ccccn4)c(N)nn3c2)n1 [Compound V-109]
0.5 to 5 µM	< 0.5 µM	0.5 to 5 µM	COC(=O)C1CCCN1C(=O)c1ccc(-c2cnc3c(-c4ccccn4)c(N)nn3c2)nc1 (centres unmarked) [Compound V-66]
0.5 to 5 µM	0.5 to 5 µM	> 5 µM	N#CCCN(Cc1ccccc1)C(=O)c1c(N)nn2cc(-c3ccncn3)cnc12 [Compound V-38]
< 0.5 µM	< 0.5 µM	> 5 µM	CN1CCC(N(C)c2ccc(-c3cnc4c(-c5ccccn5)c(N)nn4c3)cn2)CC1 [Compound V-169]
< 0.5 µM	–	–	N#Cc1ccc(-c2cnc3c(-c4ccccn4)c(N)nn3c2)cc1 [Compound V-196]
< 0.5 µM	–	–	Nc1nn2cc(-c3cccc(CCl)c3)cnc2c1-c1ccccn1 [Compound V-210]
< 0.5 µM	–	–	Nc1nn2cc(-c3ccc(C=O)cc3)cnc2c1-c1ccccn1 [Compound V-193]
< 0.5 µM	–	–	Nc1nn2cc(-c3ccc(CCl)cc3)cnc2c1-c1ccccn1 [Compound V-203]
